Values quoted from earlier work, collected in US20050079222A1, “Production of nanoparticles from methyl vinyl ether and maleic anhydride for the administration of hydrophilic pharmaceuticals, more particularly of puric and pyrimidinic bases” (priority 2001, published 2005).

Test system: tumors
Conditions: versus 5-fluorouracile

O=c1[nH]c(=O)n([C@@H]2O[C@H](CO)[C@@H](O)[C@H]2O)cc1F [5-fluorouridine, 2,4-dioxo-5-fluoropyrimidine riboside]
antitumoral activity, times more potent than 5-fluorouracile and other derivatives: 100 times
